In ChEMBL document CHEMBL4373727, “Thienopyrimidinone Derivatives That Inhibit Bacterial tRNA (Guanine37-N1)-Methyltransferase (TrmD) by Restructuring the Active Site with a Tyrosine-Flipping Mechanism” (J Med Chem, 2019):

Experiment: Selectivity ratio of Kd for full length Mycobacterium tuberculosis tRNA (guanine(37)-N1)-methyltransferase expressed in Escherichia coli BL21 (DE3) to Kd for Pseudomonas aeruginosa tRNA (guanine(37)-N1)-methyltransferase (Leu5 to Asp25 residues) expressed in Escherichia coli BL21 (DE3) Rosetta T1R cells

Compound CCCCCCCCNCc1ccc(CNC(=O)c2csc3nc[nH]c(=O)c23)cc1 has a Ratio of 100.

Compound NC1CCN(Cc2ccc(CNC(=O)c3csc4nc[nH]c(=O)c34)cc2)CC1 has a Ratio of 100 to 300.
